Results on seven molecules are retold here after patent publication US20260226048A1, “MULTI-CYCLIC IRAK AND FLT3 INHIBITING COMPOUNDS AND USES THEREOF” (CHILDREN'S HOSPITAL MEDICAL CENTER, priority 2023, published 2026).

A value given as a limit tells only on which side of the number the result lay.

Holding throughout (details): 11-point 3-fold dilution
The target of one assay is T1, FLT3 N841I (Homo sapiens, UniProt P36888, N841I).
T1 construct: purchased DiscoverX (KINOMEscan); host or cells: E. coli BL21-derived host (T7 phage) or HEK-293
T1 sequence (P36888 27-993 N841I): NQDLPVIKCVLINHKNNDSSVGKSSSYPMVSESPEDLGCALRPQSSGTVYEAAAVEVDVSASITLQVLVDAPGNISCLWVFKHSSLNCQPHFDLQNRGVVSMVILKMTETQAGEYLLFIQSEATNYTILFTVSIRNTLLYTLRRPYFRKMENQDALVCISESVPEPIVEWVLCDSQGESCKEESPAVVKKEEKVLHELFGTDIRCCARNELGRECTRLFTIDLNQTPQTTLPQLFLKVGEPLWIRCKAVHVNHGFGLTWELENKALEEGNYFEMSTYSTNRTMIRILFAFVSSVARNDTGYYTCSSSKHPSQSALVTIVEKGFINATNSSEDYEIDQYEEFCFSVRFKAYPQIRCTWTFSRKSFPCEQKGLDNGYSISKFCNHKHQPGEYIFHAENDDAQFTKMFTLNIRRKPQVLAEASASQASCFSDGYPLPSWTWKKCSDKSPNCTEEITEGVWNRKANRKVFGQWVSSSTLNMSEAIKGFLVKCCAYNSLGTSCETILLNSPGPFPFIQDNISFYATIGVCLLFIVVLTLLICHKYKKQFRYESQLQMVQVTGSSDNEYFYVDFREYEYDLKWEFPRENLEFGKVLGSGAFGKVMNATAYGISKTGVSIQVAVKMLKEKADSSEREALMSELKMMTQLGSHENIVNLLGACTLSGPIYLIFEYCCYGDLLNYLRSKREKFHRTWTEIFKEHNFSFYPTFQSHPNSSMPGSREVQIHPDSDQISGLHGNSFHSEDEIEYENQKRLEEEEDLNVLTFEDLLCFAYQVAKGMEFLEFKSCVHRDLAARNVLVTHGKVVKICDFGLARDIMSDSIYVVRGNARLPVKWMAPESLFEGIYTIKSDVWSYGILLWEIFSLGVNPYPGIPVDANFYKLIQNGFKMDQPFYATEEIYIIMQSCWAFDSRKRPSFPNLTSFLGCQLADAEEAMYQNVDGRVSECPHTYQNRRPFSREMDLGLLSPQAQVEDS
Put plainly: DiscoverX KINOMEscan competition binding assay, FLT3 N841I. The source says: (§1) […]. […] As a result, the data report thermodynamic interaction affinities (Kd values), rather than IC50 values that are dependent on ATP concentrations. The assay uses a DNA-tagged version of the protein kinase, and an immobilized ligand bound to a solid support. Compounds that directly or indirectly prevent kinase binding to the immobilized ligand reduce the amount of kinase captured on the solid support, which is detected using an ultra-sensitive qPCR method. Affinity constants reported from the assay have been reported to be independent of the immobilized ligand used that is coupled to the solid support (See supplemental information in Fabian, M. A. et. al., (2005) Nat. Biotechnol. 23, 329-336; Wodicka, L. M. et. al., (2010) Chem. Biol. 17, 1241-1249.)
(§2) Kinase-tagged T7 phage strains were prepared in an E. coli host derived from the BL21 strain. E. coli were grown to log-phase and infected with T7 phage and incubated with shaking at 32° C. until lysis. The lysates were centrifuged and filtered to remove cell debris. The remaining kinases were produced in HEK-293 cells and subsequently tagged with DNA for qPCR detection. Streptavidin-coated magnetic beads were treated with biotinylated small molecule ligands for 30 minutes at room temperature to generate affinity resins for kinase assays. The liganded beads were blocked with excess biotin and washed with blocking buffer (SeaBlock (Pierce), 1% BSA, 0.05% Tween 20, 1 mM DTT) to remove unbound ligand and to reduce non-specific binding. […] Test compounds were prepared as 111× stocks in 100% DMSO. Kds were determined using an 11-point 3-fold compound dilution series with three DMSO control points. All compounds for Kd measurements are distributed by acoustic transfer (non-contact dispensing) in 100% DMSO. The compounds were then diluted directly into the assays such that the final concentration of DMSO was 0.9%. All reactions were performed in polypropylene 384-well plates. Each was a final volume of 0.02 mL. […] The kinase concentration in the eluates was measured by qPCR.
(§3) Binding constants (Kds) were calculated with a standard dose-response curve using the Hill equation. The Hill Slope was set to −1. Curves were fitted using a non-linear least square fit with the Levenberg-Marquardt algorithm.

The target of the next assay is T2, IRAK1 (Homo sapiens, UniProt P51617).
T2 construct: purchased Reaction Biology (RBC HotSpot)
T2 sequence (P51617 whole entry): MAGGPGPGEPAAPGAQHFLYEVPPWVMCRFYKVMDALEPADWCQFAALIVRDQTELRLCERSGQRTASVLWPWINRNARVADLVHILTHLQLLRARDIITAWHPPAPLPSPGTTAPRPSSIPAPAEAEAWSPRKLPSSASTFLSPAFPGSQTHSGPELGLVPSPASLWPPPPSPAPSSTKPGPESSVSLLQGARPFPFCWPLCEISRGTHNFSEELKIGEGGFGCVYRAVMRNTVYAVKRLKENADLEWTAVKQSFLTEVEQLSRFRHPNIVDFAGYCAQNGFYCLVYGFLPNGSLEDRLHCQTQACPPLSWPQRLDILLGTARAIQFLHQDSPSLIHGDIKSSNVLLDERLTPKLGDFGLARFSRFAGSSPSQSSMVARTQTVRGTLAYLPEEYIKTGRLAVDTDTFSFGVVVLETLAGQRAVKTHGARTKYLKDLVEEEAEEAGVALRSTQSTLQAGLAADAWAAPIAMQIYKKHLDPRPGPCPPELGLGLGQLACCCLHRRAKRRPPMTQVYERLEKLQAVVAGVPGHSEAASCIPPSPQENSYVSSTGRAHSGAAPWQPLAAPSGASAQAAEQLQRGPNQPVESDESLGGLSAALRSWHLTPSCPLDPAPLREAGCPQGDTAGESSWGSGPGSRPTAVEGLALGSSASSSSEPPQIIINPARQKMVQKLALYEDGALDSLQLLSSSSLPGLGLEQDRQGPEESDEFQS
In words: DiscoverX KINOMEscan competition binding assay, IRAK1.
Description: as §1, §2, §3

The target in the next assay is T3, FLT3 ITD, F691L (Homo sapiens, UniProt P36888, F691L, form not given).
T3 construct: fused on or other part: DNA tag for qPCR detection (kinase-tagged T7 phage, or made in HEK-293 cells and then tagged with DNA)
T3 sequence (P36888 1-993 F691L): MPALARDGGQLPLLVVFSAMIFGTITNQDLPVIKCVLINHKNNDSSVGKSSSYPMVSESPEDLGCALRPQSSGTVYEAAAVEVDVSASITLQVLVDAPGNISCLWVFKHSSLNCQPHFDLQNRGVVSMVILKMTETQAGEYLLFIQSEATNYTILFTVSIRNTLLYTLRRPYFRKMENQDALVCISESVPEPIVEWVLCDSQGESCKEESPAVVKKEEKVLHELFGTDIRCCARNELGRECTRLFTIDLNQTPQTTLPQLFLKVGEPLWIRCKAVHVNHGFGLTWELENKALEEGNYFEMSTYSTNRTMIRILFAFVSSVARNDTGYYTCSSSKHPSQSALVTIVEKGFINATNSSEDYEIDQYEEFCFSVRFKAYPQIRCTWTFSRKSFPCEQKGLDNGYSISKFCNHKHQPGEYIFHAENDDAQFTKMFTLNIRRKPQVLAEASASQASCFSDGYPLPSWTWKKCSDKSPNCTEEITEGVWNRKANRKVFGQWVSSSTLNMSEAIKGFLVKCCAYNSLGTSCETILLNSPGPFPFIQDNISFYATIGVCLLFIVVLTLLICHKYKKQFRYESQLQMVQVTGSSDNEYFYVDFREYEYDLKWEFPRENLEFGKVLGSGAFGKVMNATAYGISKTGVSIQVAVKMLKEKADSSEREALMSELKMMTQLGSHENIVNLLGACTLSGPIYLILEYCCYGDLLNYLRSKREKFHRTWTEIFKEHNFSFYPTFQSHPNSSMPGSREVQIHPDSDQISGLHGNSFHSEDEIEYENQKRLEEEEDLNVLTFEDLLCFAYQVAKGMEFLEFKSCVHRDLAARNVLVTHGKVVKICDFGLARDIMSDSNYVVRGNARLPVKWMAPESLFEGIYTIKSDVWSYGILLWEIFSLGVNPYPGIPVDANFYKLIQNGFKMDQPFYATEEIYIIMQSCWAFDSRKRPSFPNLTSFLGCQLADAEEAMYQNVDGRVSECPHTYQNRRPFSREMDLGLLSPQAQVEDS
Put plainly: DiscoverX KINOMEscan competition binding assay, FLT3 ITD, F691L.
Description: as §1, §2, §3

As to `COc1cc2ncc(-c3nc(N[C@H]4CNCC[C@@H]4F)ncc3F)n2nc1C1CC1` [Compound 1a, 4-(6-cyclopropyl-7-methoxyimidazo[1,2-b]pyridazin-3-yl)-5-fluoro-N-((3S,4S)-4-fluoropiperidin-3-yl)pyrimidin-2-amine], the equilibrium dissociation constant (Kd) at FLT3 N841I is less than 0.17 nM; on IRAK1, less than 0.17 nM; on FLT3 ITD, F691L it was less than 0.17 nM.
In the case of `FC(F)COc1cc2ncc(-c3ccnc(N[C@H]4CNCC[C@@H]4F)n3)n2nc1C1CC1` [Compound 4a, 4-(6-cyclopropyl-7-(2,2-difluoroethoxy)imidazo[1,2-b]pyridazin-3-yl)-N-((3 S,4S)-4-fluoropiperidin-3-yl)pyrimidin-2-amine], the dissociation constant Kd at FLT3 N841I was 0.88 nM; at IRAK1, 7.8 nM; at FLT3 ITD, F691L, less than 0.17 nM.
For `COc1cc2ncc(-c3nc(N[C@H]4CNCC[C@@H]4F)ncc3F)n2nc1C(C)(C)O` [Compound 45a, 2-(3-(5-fluoro-2-(((3S,4S)-4-fluoropiperidin-3-yl)amino)pyrimidin-4-yl)-7-methoxyimidazo[1,2-b]pyridazin-6-yl)propan-2-ol], the Kd on FLT3 N841I was determined as 1.1 nM; on IRAK1 it was 1.6 nM; on FLT3 ITD, F691L, 0.19 nM.
Taken in the same sequence, the figures for `CC(C)(O)c1ccc2ncc(-c3nc(N[C@H]4CNCC[C@@H]4F)ncc3F)n2c1` [Compound 46a, 2-(3-(5-fluoro-2-(((3S,4S)-4-fluoropiperidin-3-yl)amino)pyrimidin-4-yl)imidazo[1,2-a]pyridin-6-yl)propan-2-ol] were 3.2 nM, 0.7 nM and 0.22 nM.
`COc1cc2ncc(-c3nc(N[C@H]4CNCC[C@@H]4F)ncc3F)n2nc1C1COC1` [Compound 92a, 5-fluoro-N-((3S,4S)-4-fluoropiperidin-3-yl)-4-(7-methoxy-6-(oxetan-3-yl)imidazo[1,2-b]pyridazin-3-yl)pyrimidin-2-amine]: the dissociation constant Kd at FLT3 N841I is 0.18 nM; at IRAK1 it was 0.49 nM; at FLT3 ITD, F691L, less than 0.17 nM.
Taken in the same sequence, the figures for `CC(C)(O)c1cn2c(-c3nc(N[C@H]4CNCC[C@@H]4F)ncc3F)cnc2cn1` [Compound 100a, 2-(3-(5-fluoro-2-(((3S,4S)-4-fluoropiperidin-3-yl)amino)pyrimidin-4-yl)imidazo[1,2-a]pyrazin-6-yl)propan-2-ol] were 16 nM, 4.5 nM and 3.4 nM.
With `COc1cc2ncc(-c3nc(N[C@H]4CNCC[C@@H]4F)ncc3F)n2nc1N1CCCS1(=O)=O` [Compound 112a, 2-(3-(5-fluoro-2-(((3S,4S)-4-fluoropiperidin-3-yl)amino)pyrimidin-4-yl)-7-methoxyimidazo[1,2-b]pyridazin-6-yl)isothiazolidine 1,1-dioxide], the Kd at FLT3 N841I is 0.2 nM; at IRAK1 it was 1.1 nM; at FLT3 ITD, F691L it was less than 0.17 nM.

Usually Kd stands for the constant that tells how readily two partners part at equilibrium. Read a high Kd as weaker binding.
